Patent US11098072B2, “Alkenyl and beta-substituted phosphonates as antimicrobial agents” (The George Washington University, priority 2017, dated 2021)
Converted amounts (≈) assume the structure as drawn. “And” between values parts separate entries of the source, which are not always exact repeats. Equal values may be shown once. Read-outs that look alike come from different tables or passages of the source.

Columns and labels:
[1] = test system: P. falciparum had1 mutant strain; format: cell-based; details: for resistance of had1 parasites compared with wild-type: in words
HepG2 cells = assay: HepG2 cell inhibition (cytotoxicity) assay; format: cell-based; details: for IC50: Homo sapiens
Method: For cytotoxicity assays, HepG2 cells (ATCC HB-8065) were grown in DMEM supplemented with 4 mM L-glutamine (Gibco #11966-025) with either 4.5 g/L D-glucose or 1.8 g/L galactose as carbon source. Cells were trypsinized, resuspended in the respective medium (DMEM/glutamine/glucose or DMEM/glutamine/galactose) to 4×10^5 cells/mL and 50 μL/well transferred to flat-bottom white opaque tissue culture plates (Falcon #353296) containing 50 μL/well of the respective medium with test compound. Compound concentrations were two-fold dilutions ranging from 50 μM to 0.049 μM as well as the drug-free DMSO-only control. All concentrations were tested in duplicate for each carbon source. After 24 h incubation at 5% CO2, 37° C., 10 μL/well of Celltiter-Glo reagent (Promega #G9241) was added and luminescence recorded after 20 min incubation in the dark.

P. falciparum [2] = assay: Growth inhibition against P. falciparum; format: cell-based; details: Plasmodium falciparum
Mtb = Mtb growth inhibition (MIC99) in 7H9 and GAST-Fe media; format: cell-based, M. tuberculosis; details: Mycobacterium tuberculosis
Method: Selected analogs were tested for the growth inhibition against P. falciparum and Mtb in both rich media (7H9) and minimal media (GAST-Fe) following reported procedures.

P. falciparum DXR [3] = molecular target: T1, P. falciparum DXR (Plasmodium falciparum, UniProt Q8IKG4); assay: Inhibition of P. falciparum DXR enzyme; format: biochemical
T1 sequence (Q8IKG4 73-488): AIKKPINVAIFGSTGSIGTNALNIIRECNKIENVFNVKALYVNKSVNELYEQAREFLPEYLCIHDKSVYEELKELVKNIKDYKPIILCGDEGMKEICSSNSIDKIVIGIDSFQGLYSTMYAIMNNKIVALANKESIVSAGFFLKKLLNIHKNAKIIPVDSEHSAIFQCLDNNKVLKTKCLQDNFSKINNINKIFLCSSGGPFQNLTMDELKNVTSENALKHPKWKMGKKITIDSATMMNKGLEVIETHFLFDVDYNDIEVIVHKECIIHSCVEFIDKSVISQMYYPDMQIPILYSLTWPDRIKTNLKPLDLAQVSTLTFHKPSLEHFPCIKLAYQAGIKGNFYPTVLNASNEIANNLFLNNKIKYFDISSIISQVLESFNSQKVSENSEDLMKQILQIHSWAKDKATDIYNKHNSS

Mtb DXR = Mtb DXR (Mycobacterium tuberculosis, UniProt P9WNS1); assay: Inhibition of Mtb DXR enzyme; format: biochemical, M. tuberculosis; details: percent remaining enzyme activity at 100 μM compound
Method: Phosphonic acid salts and prodrugs were evaluated as inhibitors of DXR from Mtb and P. falciparum and the results are shown in Table 6. Initially, the percent remaining enzyme activity was studied using a treatment of each compound at a single concentration of 100 μM. […] In general, the compounds display greater inhibition of DXR from P. falciparum compared with activity against the Mtb homolog.

P. falciparum [4] = details: earlier work / reference drug; read-out: P. falciparum growth IC50; cited from earlier work
in vitro = in vitro ADME; details: mouse plasma, compound 1 μM, 37° C.; read-out: Plasma stability (t1/2)
Method: (§1) In this protocol, the metabolic stability of compounds at 1 μM was determined in mouse liver microsomes (MLM) and mouse plasma. For microsomal stability each test compound was incubated in an aqueous reaction mixture consisting of 0.25 […], 1.2 mM NADPH, 3.3 mM MgCl2, and 100 mM potassium phosphate buffer (pH 7.4). For plasma stability each test compound was incubated in mouse plasma (VWR). After incubation at 37° C. a 50 μL aliquot of the reaction was transferred to 200 μL ice cold acetonitrile containing internal standard (Enalapril, 100 ng/mL). The quenched reaction mixtures were centrifuged at 3200 rpm for 5 min, and 100 μL of the supernatant were transferred to 96-well plate and analyzed by LC-MS/MS using an Applied Biosystems-Sciex API 4000. Analyte/internal standard peak area ratios were used to evaluate stability. […] An Amour C18 column (2.1×30 mm, 5 μm; Analytical Sales and Services, Pompton Plains, N.J.) was used for chromatographic separation. Mobile phases were 0.1% formic acid, 1 mM triethylamine in water and acetonitrile with a flow rate of 0.35 mL/min. The starting phase was 0% acetonitrile increased to 100% acetonitrile over 3 minutes. Peak areas were integrated using Analyst Software (AB Sciex, Foster City, Calif.).

[5] = Metabolic stability in mouse liver microsomes; format: in vitro ADME; details: pH 7.4; mouse liver microsomes, compound 1 μM, 37° C.; read-out: Metabolic stability MLM (t1/2)
Method: as §1

[6] = In vivo exposure study in mice; parameters: species or system Swiss Webster mice
Method: We designed a compound exposure study to determine plasma concentration of 12a under similar conditions to the efficacy study.
Animal care and all procedures were conducted at Charles River Laboratories (Wilmington, Mass.) and performed in accordance with the National Institutes of Health Guide for the Care and Use of Laboratory Animals and approved by the institutional animal care and use committee. […] The suspension was administered to unfasted female Swiss Weber mice (n=3) at 20 mg/kg i.p. Plasma samples (10 μL) were removed at 0.25, 0.5, 1, 2, 4, 6 and 8 h and stored at −80° C. Plasma samples were added to ice cold acetonitrile containing the internal standard, glafenine, as appropriate to bring samples into the standard curve range (50-10,000 ng/ml), then centrifuged for 5 minutes at 3200 rpm and the supernatant transferred to a 96-well sample plate for analysis by liquid chromatography-tandem mass spectrometry. The MRM transitions for glafenine and 12a were m/z: 370.9>296.9 and 180.075>119.9, respectively. A Synergi 4 μm Hydro-RP column (250×4.6 mm, 80 Å) was used for chromatographic separation. Mobile phases were 0.1% formic acid in water and acetonitrile with a flow rate of 1.2 mL/min. The starting phase was 0% acetonitrile for 3 minutes, increased to 60% acetonitrile over 6 minutes. Peak areas were integrated using Analyst Software (AB Sciex, Foster City, Calif.).

P. falciparum DXR [7] = molecular target: T1, P. falciparum DXR; details: background; read-out: P. falciparum DXR IC50; cited from earlier work
[8] = HepG2, Table 6, cytotoxicity, read-out: HepG2 IC50
[9] = Table 6, growth inhibition, read-out: P.f. IC50
[10] = rich media (7H9), read-out: Mtb MIC99 7H9
[11] = Table 6, N-acyl analogs, read-out: Pf Dxr IC50
[12] = minimal media (GAST-Fe), read-out: Mtb MIC99 Gast/Fe

Chain of Mtb DXR (P9WNS1 whole entry): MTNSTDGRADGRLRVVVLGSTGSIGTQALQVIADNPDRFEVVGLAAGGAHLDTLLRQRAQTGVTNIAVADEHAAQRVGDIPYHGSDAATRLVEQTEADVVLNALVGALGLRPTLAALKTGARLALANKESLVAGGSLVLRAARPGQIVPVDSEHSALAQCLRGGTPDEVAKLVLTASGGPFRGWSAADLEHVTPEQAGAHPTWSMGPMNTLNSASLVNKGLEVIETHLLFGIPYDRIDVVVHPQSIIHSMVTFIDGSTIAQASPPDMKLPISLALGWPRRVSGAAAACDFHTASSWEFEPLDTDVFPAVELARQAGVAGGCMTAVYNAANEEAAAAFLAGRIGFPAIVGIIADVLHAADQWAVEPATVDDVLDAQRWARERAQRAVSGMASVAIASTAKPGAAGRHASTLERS

SMILES	IC50 (P. falciparum [2]; [9]) [µg/mL]	MIC99 (Mtb; [10]) [µg/mL]	IC50 (P. falciparum DXR [3]; [11])	MIC99 (Mtb; [12]) [µg/mL]	Mtb Dxr (% Residue) (Mtb DXR)	other results
CC(C)(C)C(=O)OCOP(=O)(/C=C/CN(O)C(=O)c1ccccc1)OCOC(=O)C(C)(C)C [Compound 33a, [({[(2,2-dimethylpropanoyl)oxy]methoxy}[(1E)-3-(N-hydroxy-1-phenylformamido)prop-1-en-1-yl]phosphoryl)oxy]methyl 2,2-dimethylpropanoate]	0.097	50 (≈ 103 µM)	–	–	–	resistance of had1 parasites compared with wild-type [1]: more resistant; IC50 (HepG2 cells; [8]): > 50000 nM
O=C(c1ccccc1)N(O)C/C=C/P(=O)([O-])O.[Na+] [Compound 32a, Sodium hydrogen [(1E)-3-(N-hydroxy-1-phenylformamido)prop-1-en-1-yl]phosphonate]	0.103	> 50	110 nM and 106 nM	25	(36.87) %	resistance of had1 parasites compared with wild-type [1]: more resistant; IC50 (HepG2 cells; [8]): > 50000 nM
O=C(CCCc1ccccc1)N(O)C/C=C/P(=O)([O-])O.[Na+] [Compound 32d, Sodium hydrogen [(1E)-3-(N-hydroxy-4-phenylbutanamido)prop-1-en-1-yl]phosphonate]	1.6	> 100	898 nM	> 100	(29.2) %	–
O=C(Cc1ccccc1)N(O)C/C=C/P(=O)([O-])O.[Na+] [Compound 32b, Sodium hydrogen [(1E)-3-(N-hydroxy-2-phenylacetamido)prop-1-en-1-yl]phosphonate]	0.137	> 100	170 nM	–	(33.6) %	–
C[C@@H]1CC[C@H]2[C@@H](C)C(=O)O[C@@H]3O[C@@]4(C)CC[C@@H]1[C@]32OO4 [artemisinin]	–	–	–	–	–	IC50 (P. falciparum [4]): 10.4 nM
O=CN(O)C/C=C/P(=O)([O-])O.[Na+] [Compound 12a, Sodium hydrogen [(1E)-3-(N-hydroxyformamido)prop-1-en-1-yl]phosphonate]	–	–	–	–	–	sensitivity in had1+HAD1-GFP strain ([1]; mutant supplied with wild-type copy of HAD1): restored; resistance of had1 parasites compared with wild-type 3D7 ([1]; shift of IC50 curve): 3.4 fold; half-life at 1 μM (in vitro): > 2 h; half-life at 1 μM [5]: > 1 h; SI^Pf Selectivity Index for P. falciparum (HepG2 cells; HepG2 IC50/P.falciparum IC50): 2632; IC50 (HepG2 cells; HepG2, read-out: HepG2 IC50): > 50000 nM; IC50 (P. falciparum DXR [3]; read-out: P. falciparum DXR IC50): 92 nM; IC50 (P. falciparum [2]; read-out: P. falciparum growth IC50): 19 nM; IC50 (P. falciparum [2]; read-out: Pf IC50): 19 nM; plasma concentration at 8 h relative to Pf IC50 of 18a in vitro ([6]; after 18a 20 mg/kg i.p.): approximately 200 fold; concentration at 8 h ([6]; female, Swiss Webster, mouse, in vivo, 20 mg/kg, read-out: plasma concentration of 12a at 8 h): 485 ng/mL and 2.8 µM
CC(=O)N(O)CCCP(=O)(O)O [FR900098]	–	–	–	–	–	IC50 (P. falciparum DXR [7]): 24 nM
O=C(CCc1ccccc1)N(O)C/C=C/P(=O)([O-])O.[Na+] [Compound 32c, Sodium hydrogen [(1E)-3-(N-hydroxy-3-phenylpropanamido)prop-1-en-1-yl]phosphonate]	3.3	> 100	1340 nM	> 100	(62.3) %	–
